From the kinase profiling compilation of Christmann-Franck et al. (2016)

What was measured:
Test in all cases: KINOMEscan competition binding
Conditions in all cases: compound 10.0 µM
ACVR2B (human) = ACVR2B (human) (UniProt Q13705)
IRAK1 (human) = IRAK1 (human) (UniProt P51617)
NUAK1 (human) = NUAK1 (human) (UniProt O60285)
ERBB3 (human) = ERBB3 (human) (UniProt P21860)
CSNK1A1L (human) = CSNK1A1L (human) (UniProt Q8N752)
WEE1 (human) = WEE1 (human) (UniProt P30291)
INSRR (human) = INSRR (human) (UniProt P14616)
MAPK4 (human) = MAPK4 (human) (UniProt P31152)
RPS6KA6 KD1 (human) = RPS6KA6 KD1 (human) (UniProt Q9UK32)
CDKL2 (human) = CDKL2 (human) (UniProt Q92772)
DAPK2 (human) = DAPK2 (human) (UniProt Q9UIK4)
PRKACB (human) = PRKACB (human) (UniProt P22694)
STK32B (human) = STK32B (human) (UniProt Q9NY57)
MAP2K1 (human) = MAP2K1 (human) (UniProt Q02750)
TLK1 (human) = TLK1 (human) (UniProt Q9UKI8)
MAP3K3 (human) = MAP3K3 (human) (UniProt Q99759)
MAP3K3 (human), sequence (Q99759 whole entry, looked up): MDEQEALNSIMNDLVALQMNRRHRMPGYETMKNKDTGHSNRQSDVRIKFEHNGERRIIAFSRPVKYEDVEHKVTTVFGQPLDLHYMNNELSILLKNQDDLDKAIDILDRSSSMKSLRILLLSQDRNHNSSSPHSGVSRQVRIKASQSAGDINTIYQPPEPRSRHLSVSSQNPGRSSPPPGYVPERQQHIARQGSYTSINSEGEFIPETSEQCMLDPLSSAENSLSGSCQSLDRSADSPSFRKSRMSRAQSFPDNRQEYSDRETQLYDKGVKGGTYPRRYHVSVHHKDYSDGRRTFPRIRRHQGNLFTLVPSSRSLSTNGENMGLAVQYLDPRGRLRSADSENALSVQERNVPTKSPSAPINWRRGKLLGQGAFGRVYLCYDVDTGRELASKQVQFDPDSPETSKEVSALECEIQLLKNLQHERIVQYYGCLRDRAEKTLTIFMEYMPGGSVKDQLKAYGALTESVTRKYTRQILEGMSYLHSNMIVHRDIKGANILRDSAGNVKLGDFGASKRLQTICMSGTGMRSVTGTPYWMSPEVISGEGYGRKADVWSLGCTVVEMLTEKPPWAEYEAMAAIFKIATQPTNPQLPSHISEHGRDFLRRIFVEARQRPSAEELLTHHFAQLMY

EPHB6 (human) = EPHB6 (human) (UniProt O15197)
EPHA3 (human) = EPHA3 (human) (UniProt P29320)
PRKG2 (human) = PRKG2 (human) (UniProt Q13237)
CLK2 (human) = CLK2 (human) (UniProt P49760)
ALK (human) = ALK (human) (UniProt Q9UM73)
ALK (human), sequence (Q9UM73 whole entry, looked up): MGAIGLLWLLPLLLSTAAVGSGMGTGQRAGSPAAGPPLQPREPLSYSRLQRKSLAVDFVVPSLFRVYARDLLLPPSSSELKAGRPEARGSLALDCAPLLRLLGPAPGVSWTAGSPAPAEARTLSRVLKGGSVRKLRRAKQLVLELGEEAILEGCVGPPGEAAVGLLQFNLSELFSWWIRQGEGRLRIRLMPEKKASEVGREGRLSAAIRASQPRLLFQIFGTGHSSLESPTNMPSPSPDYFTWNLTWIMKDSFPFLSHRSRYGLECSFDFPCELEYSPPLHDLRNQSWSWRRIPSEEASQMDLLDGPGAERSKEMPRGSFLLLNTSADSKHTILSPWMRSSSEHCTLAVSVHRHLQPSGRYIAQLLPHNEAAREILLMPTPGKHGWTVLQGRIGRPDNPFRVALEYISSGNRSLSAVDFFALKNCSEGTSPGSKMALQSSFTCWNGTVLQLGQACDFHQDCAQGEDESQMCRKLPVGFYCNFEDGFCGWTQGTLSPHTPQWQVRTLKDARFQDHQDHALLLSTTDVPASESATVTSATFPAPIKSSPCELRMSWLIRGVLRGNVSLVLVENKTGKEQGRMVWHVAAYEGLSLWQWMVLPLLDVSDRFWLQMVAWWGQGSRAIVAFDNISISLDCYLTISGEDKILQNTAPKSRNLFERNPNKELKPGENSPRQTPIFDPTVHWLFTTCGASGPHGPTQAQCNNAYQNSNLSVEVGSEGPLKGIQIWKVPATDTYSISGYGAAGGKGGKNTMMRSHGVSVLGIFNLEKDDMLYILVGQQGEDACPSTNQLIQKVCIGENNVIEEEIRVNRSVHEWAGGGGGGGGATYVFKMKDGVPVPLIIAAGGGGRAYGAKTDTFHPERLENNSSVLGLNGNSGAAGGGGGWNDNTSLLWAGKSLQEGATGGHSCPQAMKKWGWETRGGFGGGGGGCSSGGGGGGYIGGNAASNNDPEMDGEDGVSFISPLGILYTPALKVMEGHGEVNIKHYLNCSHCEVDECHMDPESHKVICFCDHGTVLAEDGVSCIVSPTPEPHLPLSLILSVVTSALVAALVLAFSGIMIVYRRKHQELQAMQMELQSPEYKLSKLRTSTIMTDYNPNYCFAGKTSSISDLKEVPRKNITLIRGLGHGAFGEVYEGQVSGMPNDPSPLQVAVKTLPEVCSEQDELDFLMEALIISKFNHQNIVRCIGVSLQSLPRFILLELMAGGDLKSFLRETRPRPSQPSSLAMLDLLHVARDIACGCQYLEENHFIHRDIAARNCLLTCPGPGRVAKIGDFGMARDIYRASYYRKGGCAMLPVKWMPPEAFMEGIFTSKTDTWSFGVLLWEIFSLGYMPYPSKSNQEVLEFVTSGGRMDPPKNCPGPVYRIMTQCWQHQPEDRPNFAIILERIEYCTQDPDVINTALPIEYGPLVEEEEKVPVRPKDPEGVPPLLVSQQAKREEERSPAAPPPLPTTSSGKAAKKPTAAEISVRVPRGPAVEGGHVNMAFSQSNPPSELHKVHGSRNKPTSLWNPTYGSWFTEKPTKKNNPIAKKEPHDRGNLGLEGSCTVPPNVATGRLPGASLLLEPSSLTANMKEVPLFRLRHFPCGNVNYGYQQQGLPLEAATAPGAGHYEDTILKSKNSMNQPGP

CLK4 (human) = CLK4 (human) (UniProt Q9HAZ1)
PKN1 (human) = PKN1 (human) (UniProt Q16512)
TNK1 (human) = TNK1 (human) (UniProt Q13470)
TNK1 (human), sequence (Q13470 whole entry, looked up): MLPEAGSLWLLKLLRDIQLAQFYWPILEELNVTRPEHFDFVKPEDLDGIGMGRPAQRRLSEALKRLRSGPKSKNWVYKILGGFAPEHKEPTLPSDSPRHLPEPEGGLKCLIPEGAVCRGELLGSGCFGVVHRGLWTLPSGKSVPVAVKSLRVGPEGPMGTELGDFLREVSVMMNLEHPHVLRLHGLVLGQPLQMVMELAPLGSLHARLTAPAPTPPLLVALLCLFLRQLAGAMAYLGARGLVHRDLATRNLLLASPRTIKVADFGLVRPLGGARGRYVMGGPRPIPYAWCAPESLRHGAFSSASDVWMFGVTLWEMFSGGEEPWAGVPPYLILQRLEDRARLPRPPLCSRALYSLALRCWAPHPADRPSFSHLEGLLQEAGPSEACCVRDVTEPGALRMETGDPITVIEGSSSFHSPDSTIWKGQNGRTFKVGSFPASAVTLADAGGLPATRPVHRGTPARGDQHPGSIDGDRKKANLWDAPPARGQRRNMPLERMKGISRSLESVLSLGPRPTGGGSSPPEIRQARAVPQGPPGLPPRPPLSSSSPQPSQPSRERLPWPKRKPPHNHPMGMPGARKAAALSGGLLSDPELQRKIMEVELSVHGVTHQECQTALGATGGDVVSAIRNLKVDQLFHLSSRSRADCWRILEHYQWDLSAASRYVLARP

FER (human) = FER (human) (UniProt P16591)
PRKAA2 (human) = PRKAA2 (human) (UniProt P54646)
PRKG1 (human) = PRKG1 (human) (UniProt Q13976)
MAPK13 (human) = MAPK13 (human) (UniProt O15264)
MAP3K4 (human) = MAP3K4 (human) (UniProt Q9Y6R4)
TEK (human) = TEK (human) (UniProt Q02763)
FLT3 (human) = FLT3 (human) (UniProt P36888)
DCLK3 (human) = DCLK3 (human) (UniProt Q9C098)
DCLK3 (human), sequence (Q9C098 whole entry, looked up): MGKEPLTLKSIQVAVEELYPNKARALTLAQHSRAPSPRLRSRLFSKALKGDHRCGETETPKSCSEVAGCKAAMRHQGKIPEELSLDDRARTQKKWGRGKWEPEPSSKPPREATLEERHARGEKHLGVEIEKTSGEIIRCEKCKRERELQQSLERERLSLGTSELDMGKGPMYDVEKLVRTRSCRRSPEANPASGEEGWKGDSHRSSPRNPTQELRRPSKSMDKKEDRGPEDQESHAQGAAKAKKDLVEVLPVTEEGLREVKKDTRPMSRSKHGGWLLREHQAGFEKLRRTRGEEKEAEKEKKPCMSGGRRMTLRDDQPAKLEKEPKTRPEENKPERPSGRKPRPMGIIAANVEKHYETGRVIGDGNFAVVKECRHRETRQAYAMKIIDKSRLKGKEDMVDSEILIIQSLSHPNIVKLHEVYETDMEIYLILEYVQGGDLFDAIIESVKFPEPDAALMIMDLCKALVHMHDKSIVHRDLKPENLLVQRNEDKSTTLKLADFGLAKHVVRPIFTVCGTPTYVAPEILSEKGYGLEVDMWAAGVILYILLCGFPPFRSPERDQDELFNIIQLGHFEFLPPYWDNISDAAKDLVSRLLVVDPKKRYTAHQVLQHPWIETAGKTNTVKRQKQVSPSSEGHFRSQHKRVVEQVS

MAPK15 (human) = MAPK15 (human) (UniProt Q8TD08)
IKBKE (human) = IKBKE (human) (UniProt Q14164)
ROS1 (human) = ROS1 (human) (UniProt P08922)
PHKG1 (human) = PHKG1 (human) (UniProt Q16816)
PHKG1 (human), sequence (Q16816 whole entry, looked up): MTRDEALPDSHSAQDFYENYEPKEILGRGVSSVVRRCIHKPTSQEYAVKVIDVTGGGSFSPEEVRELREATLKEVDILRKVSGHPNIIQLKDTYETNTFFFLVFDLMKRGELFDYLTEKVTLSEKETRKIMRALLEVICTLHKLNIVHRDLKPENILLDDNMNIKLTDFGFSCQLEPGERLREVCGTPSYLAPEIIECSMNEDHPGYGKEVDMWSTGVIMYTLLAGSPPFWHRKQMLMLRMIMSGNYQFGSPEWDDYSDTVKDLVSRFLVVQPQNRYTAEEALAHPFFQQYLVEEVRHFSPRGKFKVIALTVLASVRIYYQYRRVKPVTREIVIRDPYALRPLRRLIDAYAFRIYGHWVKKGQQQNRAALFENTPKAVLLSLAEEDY

STK38L (human) = STK38L (human) (UniProt Q9Y2H1)
EPHA2 (human) = EPHA2 (human) (UniProt P29317)
CDK4 CCND1 (human) = CDK4 CCND1 (human) (UniProt P11802+P24385)
PIP5K1C (human) = PIP5K1C (human) (UniProt O60331)

NUAK1 (human), sequence (O60285 whole entry, looked up): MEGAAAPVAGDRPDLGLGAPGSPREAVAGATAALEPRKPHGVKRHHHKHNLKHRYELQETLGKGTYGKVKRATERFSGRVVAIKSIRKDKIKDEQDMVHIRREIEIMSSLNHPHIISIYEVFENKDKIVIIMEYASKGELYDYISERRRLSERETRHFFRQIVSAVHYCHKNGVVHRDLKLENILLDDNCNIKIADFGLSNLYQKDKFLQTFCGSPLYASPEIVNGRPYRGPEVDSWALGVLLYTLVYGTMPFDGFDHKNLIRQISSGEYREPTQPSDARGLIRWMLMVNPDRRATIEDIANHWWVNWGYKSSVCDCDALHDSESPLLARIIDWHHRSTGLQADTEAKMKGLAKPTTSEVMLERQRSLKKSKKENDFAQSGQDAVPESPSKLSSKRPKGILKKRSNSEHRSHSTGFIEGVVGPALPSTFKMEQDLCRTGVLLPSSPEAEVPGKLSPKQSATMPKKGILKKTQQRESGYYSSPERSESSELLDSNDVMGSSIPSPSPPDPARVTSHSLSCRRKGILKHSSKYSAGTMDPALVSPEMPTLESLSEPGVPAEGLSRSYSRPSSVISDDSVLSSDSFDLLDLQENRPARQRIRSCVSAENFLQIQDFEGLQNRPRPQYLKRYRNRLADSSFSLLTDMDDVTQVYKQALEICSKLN
CSNK1A1L (human), sequence (Q8N752 whole entry, looked up): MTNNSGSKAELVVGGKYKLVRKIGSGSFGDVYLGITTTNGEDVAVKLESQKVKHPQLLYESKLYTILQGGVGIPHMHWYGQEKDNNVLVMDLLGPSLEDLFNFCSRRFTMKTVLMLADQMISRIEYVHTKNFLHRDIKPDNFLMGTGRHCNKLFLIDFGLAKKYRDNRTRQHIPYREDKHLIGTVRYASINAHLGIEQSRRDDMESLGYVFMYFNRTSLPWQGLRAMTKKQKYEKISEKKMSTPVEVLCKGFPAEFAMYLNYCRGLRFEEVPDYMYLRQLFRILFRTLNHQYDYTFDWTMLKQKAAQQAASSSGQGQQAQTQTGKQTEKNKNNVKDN

SMILES	kinase still bound, per cent of control (ACVR2B (human))	kinase still bound, per cent of control (IRAK1 (human))	kinase still bound, per cent of control (NUAK1 (human))	kinase still bound, per cent of control (CSNK1A1L (human))	kinase still bound, per cent of control (WEE1 (human))	kinase still bound, per cent of control (INSRR (human))	kinase still bound, per cent of control (MAPK4 (human))	kinase still bound, per cent of control (RPS6KA6 KD1 (human))	kinase still bound, per cent of control (CDKL2 (human))	kinase still bound, per cent of control (DAPK2 (human))	kinase still bound, per cent of control (PRKACB (human))	kinase still bound, per cent of control (MAP2K1 (human))	kinase still bound, per cent of control (TLK1 (human))	kinase still bound, per cent of control (MAP3K3 (human))	kinase still bound, per cent of control (EPHB6 (human))	kinase still bound, per cent of control (EPHA3 (human))	kinase still bound, per cent of control (PRKG2 (human))	kinase still bound, per cent of control (CLK2 (human))	kinase still bound, per cent of control (ALK (human))	kinase still bound, per cent of control (CLK4 (human))	other results
CCOc1cc(N2CCC(O)CC2)ccc1Nc1ncc2c(n1)N(C)c1ccccc1C(=O)N2C	100%	100%	100%	100%	100%	100%	100%	100%	100%	100%	100%	100%	100%	100%	100%	100%	100%	100%	29%	100%	kinase still bound, per cent of control (ERBB3 (human)): 100%; kinase still bound, per cent of control (STK32B (human)): 100%; kinase still bound, per cent of control (PKN1 (human)): 100%; kinase still bound, per cent of control (TNK1 (human)): 7.8%; kinase still bound, per cent of control (FER (human)): 100%; kinase still bound, per cent of control (PRKAA2 (human)): 100%; kinase still bound, per cent of control (PRKG1 (human)): 100%; kinase still bound, per cent of control (MAPK13 (human)): 100%; kinase still bound, per cent of control (MAP3K4 (human)): 100%; kinase still bound, per cent of control (TEK (human)): 100%; kinase still bound, per cent of control (FLT3 (human)): 100%; kinase still bound, per cent of control (DCLK3 (human)): 100%; kinase still bound, per cent of control (MAPK15 (human)): 100%; kinase still bound, per cent of control (IKBKE (human)): 100%; kinase still bound, per cent of control (ROS1 (human)): 15%; kinase still bound, per cent of control (PHKG1 (human)): 100%; kinase still bound, per cent of control (STK38L (human)): 100%; kinase still bound, per cent of control (EPHA2 (human)): 100%
CC(=O)c1c(C)c2cnc(Nc3ccc(N4CCNCC4)cn3)nc2n(C2CCCC2)c1=O	100%	0.85%	48%	62%	36%	98%	87%	20%	6.8%	2.4%	100%	20%	42%	4.2%	65%	66%	65%	0.35%	38%	2%	kinase still bound, per cent of control (CDK4 CCND1 (human)): 0%; kinase still bound, per cent of control (PKN1 (human)): 66%; kinase still bound, per cent of control (TNK1 (human)): 61%; kinase still bound, per cent of control (FER (human)): 47%; kinase still bound, per cent of control (PRKAA2 (human)): 40%; kinase still bound, per cent of control (FLT3 (human)): 35%; kinase still bound, per cent of control (DCLK3 (human)): 9.6%; kinase still bound, per cent of control (MAPK15 (human)): 9.4%; kinase still bound, per cent of control (IKBKE (human)): 22%; kinase still bound, per cent of control (PHKG1 (human)): 18%; kinase still bound, per cent of control (PIP5K1C (human)): 35%; kinase still bound, per cent of control (EPHA2 (human)): 95%
